What was measured:
[1] = in vivo; cited from earlier work
mice = conditions: mouse, in vivo, po

Structure (SMILES): O=S([O-])S(=O)[O-].[Na+].[Na+] [sodium dithionite]
- value indicated for oral toxicity [1]: 2500 mg/kg body weight

Structure (SMILES): [C-]#[O+] [CO, carbon monoxide]
- behavioral recovery (mice): behavior recovered from being incapable of action
- survival rate (mice): high
